ChEMBL document CHEMBL1201862, “PubChem BioAssay data set” (2004)
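How tested: cells in 96-well plates exposed to compound for 48 hours at five concentrations. At the GI50, growth is halved.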 Calls of active or inactive are those of the source. Cut-off read from the data, not from the text of the source: active = GI50 up to about 1.1 µM and inactive = higher. Where a SMILES comes first, the peptide text is derived from it. Square brackets hold non-standard residues; d marks the D form. Peptide text beside a SMILES is read from it.

Columns and labels:
Experiment in all cases: DTP human tumour cell line panel, 48 h
ACHN = system: ACHN
CAKI-1 = system: CAKI-1
COLO 205 = system: COLO 205
HCC 2998 = system: HCC 2998
HCT-116 = system: HCT-116
HOP-62 = system: HOP-62
HOP-92 = system: HOP-92
NCI-H226 = system: NCI-H226
OVCAR-4 = system: OVCAR-4
OVCAR-5 = system: OVCAR-5
SK-MEL-28 = system: SK-MEL-28
SN12C = system: SN12C
SW-620 = system: SW-620
U-251 = system: U-251
UACC-257 = system: UACC-257
UO-31 = system: UO-31
KM12 = system: KM12
NCI-H460 = system: NCI-H460
RXF 393 = system: RXF 393

Structure (SMILES)	GI50 (ACHN)	GI50 (CAKI-1)	GI50 (COLO 205)	GI50 (HCC 2998)	GI50 (HCT-116)	GI50 (HOP-62)	GI50 (HOP-92)	GI50 (NCI-H226)	GI50 (OVCAR-4)	GI50 (OVCAR-5)	GI50 (SK-MEL-28)	GI50 (SN12C)	GI50 (SW-620)	GI50 (U-251)	GI50 (UACC-257)	GI50 (UO-31)	GI50 (KM12)	GI50 (NCI-H460)	GI50 (RXF 393)
CC1=C(C(=O)Nc2ccccc2)C(c2ccccc2Cl)C(C(=O)Nc2ccccc2)=C(C)N1	30.5 µM (inactive)	27.9 µM (inactive)	19.4 µM (inactive)	21.2 µM (inactive)	22.6 µM (inactive)	20.1 µM (inactive)	21.6 µM (inactive)	22.2 µM (inactive)	36.4 µM (inactive)	24.3 µM (inactive)	27.1 µM (inactive)	18.9 µM (inactive)	30.7 µM (inactive)	19.4 µM (inactive)	19.4 µM (inactive)	35.6 µM (inactive)	–	–	–
CN(C)c1cccc(OC(=O)NCCCl)c1	–	> 100 µM (inactive)	> 100 µM (inactive)	> 100 µM (inactive)	> 100 µM (inactive)	> 100 µM (inactive)	65.3 µM (inactive)	> 100 µM (inactive)	> 100 µM (inactive)	> 100 µM (inactive)	> 100 µM (inactive)	> 100 µM (inactive)	> 100 µM (inactive)	> 100 µM (inactive)	> 100 µM (inactive)	> 100 µM (inactive)	> 100 µM (inactive)	> 100 µM (inactive)	–
N#CNCC(COCc1ccccc1)c1ccccc1 (centres undefined)	> 100 µM (inactive)	–	> 100 µM (inactive)	> 100 µM (inactive)	> 100 µM (inactive)	> 100 µM (inactive)	> 100 µM (inactive)	98.4 µM (inactive)	> 100 µM (inactive)	–	> 100 µM (inactive)	> 100 µM (inactive)	70.5 µM (inactive)	> 100 µM (inactive)	–	46.1 µM (inactive)	–	> 100 µM (inactive)	99.1 µM (inactive)
CC(C)C[C@H](NC(=O)[C@H](CC(C)C)NC(=O)[C@@H](Cc1c[nH]c2ccccc12)NC(=O)[C@H](Cc1ccccc1)NC(=O)[C@@H](Cc1c[nH]c2ccccc12)NC(=O)[C@H](CCC(N)=O)NC(=O)[C@@H](CCC(N)=O)NC(=O)[C@@H]1CCCN1C(=O)[C@@H](CCCCN)NC(=O)[C@H]1CCCN1C(=O)[C@H](N)CCCN=C(N)N)C(N)=O (H-[dR][dP][dK]P[dQ]Q[dW]F[dW]LL-NH2)	–	–	> 100 µM (inactive)	> 100 µM (inactive)	> 100 µM (inactive)	> 100 µM (inactive)	> 100 µM (inactive)	> 100 µM (inactive)	> 100 µM (inactive)	> 100 µM (inactive)	> 100 µM (inactive)	> 100 µM (inactive)	> 100 µM (inactive)	> 55 µM (inactive)	> 48.3 µM (inactive)	> 100 µM (inactive)	> 100 µM (inactive)	64.7 µM (inactive)	> 100 µM (inactive)
C[Si](C)(C)[C@@]1([Se]c2ccccc2)CC[C@@H]1C(=O)c1ccccc1	54 µM (inactive)	72.1 µM (inactive)	> 100 µM (inactive)	32.6 µM (inactive)	33.6 µM (inactive)	> 100 µM (inactive)	–	40.2 µM (inactive)	67.9 µM (inactive)	> 100 µM (inactive)	55.2 µM (inactive)	61.4 µM (inactive)	53 µM (inactive)	83.8 µM (inactive)	40.6 µM (inactive)	32.3 µM (inactive)	44.9 µM (inactive)	98.9 µM (inactive)	19 µM (inactive)
Cc1cc(/N=N/c2ccc(/N=N/c3c(O)c(S(=O)(=O)O)cc4cc(S(=O)(=O)O)ccc34)cc2C)ccc1/N=N/c1ccc2cc(S(=O)(=O)O)cc(S(=O)(=O)O)c2c1	–	–	> 100 µM (inactive)	> 100 µM (inactive)	> 100 µM (inactive)	> 100 µM (inactive)	> 68.5 µM (inactive)	> 50.2 µM (inactive)	> 100 µM (inactive)	> 100 µM (inactive)	> 100 µM (inactive)	> 100 µM (inactive)	> 100 µM (inactive)	> 100 µM (inactive)	> 100 µM (inactive)	> 100 µM (inactive)	> 72.4 µM (inactive)	> 100 µM (inactive)	> 100 µM (inactive)
CCOC(=O)C(Sc1ccccc1)c1c(OC)cc(=O)oc1/C=[N+](/[O-])c1ccc(N(C)C)cc1 (centres undefined)	> 10 µM (inactive)	14.9 µM (inactive)	22.4 µM (inactive)	23.9 µM (inactive)	–	66.4 µM (inactive)	–	–	26.7 µM (inactive)	46 µM (inactive)	17.5 µM (inactive)	16.2 µM (inactive)	14.7 µM (inactive)	24.7 µM (inactive)	14.6 µM (inactive)	18.5 µM (inactive)	21.7 µM (inactive)	27.9 µM (inactive)	16.2 µM (inactive)
CC1NC(=O)CNC(=O)CNC(=O)C(Cc2ccc(O)cc2)NC(=O)C(C(C)C)NC(=O)C(C)NC1=O (centres undefined) (cyclo(GGAAVY); configuration not given here)	–	> 100 µM (inactive)	> 100 µM (inactive)	> 100 µM (inactive)	> 100 µM (inactive)	> 100 µM (inactive)	50.8 µM (inactive)	> 100 µM (inactive)	10.7 µM (inactive)	> 100 µM (inactive)	> 100 µM (inactive)	> 100 µM (inactive)	> 100 µM (inactive)	> 100 µM (inactive)	> 100 µM (inactive)	> 100 µM (inactive)	> 100 µM (inactive)	> 100 µM (inactive)	–
CC12O[Te]34OC1(C)C(C)(O3)C2(C)O4	14.8 µM (inactive)	9.71 µM (inactive)	16.9 µM (inactive)	0.016 µM (active)	11.9 µM (inactive)	20.4 µM (inactive)	–	16.9 µM (inactive)	14.6 µM (inactive)	12.2 µM (inactive)	12 µM (inactive)	10.9 µM (inactive)	14.8 µM (inactive)	3.77 µM (inactive)	17.4 µM (inactive)	11.8 µM (inactive)	14.8 µM (inactive)	15.3 µM (inactive)	14.8 µM (inactive)
O=C(NC/C=C/CO)c1ccccc1	–	–	> 100 µM (inactive)	> 100 µM (inactive)	> 100 µM (inactive)	> 100 µM (inactive)	–	> 100 µM (inactive)	> 100 µM (inactive)	> 100 µM (inactive)	> 100 µM (inactive)	> 100 µM (inactive)	> 100 µM (inactive)	> 100 µM (inactive)	> 100 µM (inactive)	> 100 µM (inactive)	> 100 µM (inactive)	> 100 µM (inactive)	> 100 µM (inactive)
Cc1nc2c(=O)n(C)c(=O)nc-2n(-c2ccc(Cl)cc2)c1C	58.6 µM (inactive)	43.1 µM (inactive)	> 100 µM (inactive)	> 100 µM (inactive)	–	> 100 µM (inactive)	> 100 µM (inactive)	> 100 µM (inactive)	31 µM (inactive)	> 100 µM (inactive)	> 100 µM (inactive)	> 100 µM (inactive)	> 100 µM (inactive)	> 100 µM (inactive)	> 100 µM (inactive)	80.4 µM (inactive)	> 100 µM (inactive)	> 100 µM (inactive)	–
